Data published in US9107814B2, “Micelle composition of polymer and passenger drug” (Wisconsin Alumni Research Foundation, priority 2005, dated 2015).

How the values were obtained:
[1] = loading of rapamycin and geldanamycin into PEG-DSPE and PEG-PCL micelles; assay type: physicochemical; settings: micelle solution against water solubility
Description: The final solvent to water ratio is between about 0.1 and about 5, preferably between about 0.5 and about 4, and more preferably about 2. The micelle solution should be delivered at a rate of between about 2 s/drop and about 60 s/drop, preferably between about 5 s/drop and about 30 s/drop, and more preferably between about 10 s/drop and about 20 s/drop.

[2] = different species; cited from earlier work
[3] = physchem

- increase in solubility [1]: 1900 fold
- chromatographic logP [3]: 3.77
SMILES: CO[C@H]1C[C@@H]2CC[C@@H](C)[C@@](O)(O2)C(=O)C(=O)N2CCCC[C@H]2C(=O)O[C@H]([C@H](C)C[C@@H]2CC[C@@H](O)[C@H](OC)C2)CC(=O)[C@H](C)/C=C(\C)[C@@H](O)[C@@H](OC)C(=O)[C@H](C)C[C@H](C)/C=C/C=C/C=C/1C [Rapamycin]
- half-life [2]: more than 5 hours
